Here are results for eleven compounds from ChEMBL document CHEMBL4765380, “Synthesis, structure and anticancer activity of new geldanamycin amine analogs containing C(17)- or C(20)- flexible and rigid arms as well as closed or open ansa-bridges” (Eur J Med Chem, 2020).

Data set [1] in a line: Selectivity index, ratio of IC50 for cytotoxicity against human HDF cells to IC50 for cytotoxicity against human SK-BR-3 cells. It is filed as toxicity, cell-based. As to conditions: HDF cells versus SK-BR-3 cells, read-out: Ratio IC50.
A short description of data set [2]: Selectivity index, ratio of IC50 for cytotoxicity against human HDF cells to IC50 for cytotoxicity against human U-87 MG cells. It is filed as toxicity, cell-based. As to conditions: HDF cells versus U-87 MG cells, read-out: Ratio IC50.
Data set [3] can be described thus: Binding affinity to HSP90 (unknown origin) assessed as dissociation constant by isothermal titration calorimetry. Also on record: species or system Homo sapiens. A general note: In ITC the heat of successive injections is recorded.
A further data set concerns A549. Put plainly: Antiproliferative activity against human A549 cells assessed as reduction in cell growth incubated for 72 hrs by SRB assay. It is filed as functional, cell-based. As to conditions: A549, 72 h. A general note: The SRB assay estimates cell density from bound dye.
A further data set has as its system PC-3. Put plainly: Antiproliferative activity against human PC-3 cells assessed as reduction in cell growth incubated for 72 hrs by SRB assay. As to conditions: PC-3, 72 h. Type of data set: functional, cell-based.
A short description of data set [4]: Selectivity index, ratio of IC50 for cytotoxicity against human HDF cells to IC50 for cytotoxicity against human A549 cells. It is filed as toxicity, cell-based. As to conditions: HDF cells versus A549 cells, read-out: Ratio IC50.
A further data set concerns U-87 MG. Put plainly: Antiproliferative activity against human U-87 MG cells assessed as reduction in cell growth incubated for 72 hrs by SRB assay. Type of data set: functional, cell-based, U-87MG ATCC.
The test system of another data set is SK-OV-3. The data set can be described thus: Antiproliferative activity against human SK-OV-3 cells assessed as reduction in cell growth incubated for 72 hrs by SRB assay. As to conditions: SK-OV-3, 72 h. It is filed as functional, cell-based.
Data set [5] can be described thus: Selectivity index, ratio of IC50 for cytotoxicity against human HDF cells to IC50 for cytotoxicity against human PC-3 cells. As to conditions: HDF cells versus PC-3 cells, read-out: Ratio IC50. It is filed as toxicity, cell-based.
A short description of data set [6]: Cytotoxicity against human HDF cells assessed as reduction in cell growth incubated for 72 hrs by SRB assay. Type of data set: cell-based. As to conditions: HDFa.
The nature of data set [7]: Selectivity index, ratio of IC50 for cytotoxicity against human HDF cells to IC50 for cytotoxicity against human SK-OV-3 cells.
The next data set concerns SK-BR-3. Put plainly: Antiproliferative activity against human SK-BR-3 cells assessed as reduction in cell growth incubated for 72 hrs by SRB assay. As to conditions: SK-BR-3, 72 h. Type of data set: functional, cell-based.

pIC50, pKd: −log10 of the molar value.

The pKd is the Kd on a negative log10 scale, so that one unit is a factor of ten. The term pIC50 denotes the negative decadic logarithm of the IC50, by convention in mol/L. As to `C#CCCN1CCC(NC2=C3C[C@@H](C)C[C@H](OC)[C@H](O)[C@@H](C)/C=C(\C)[C@H](OC(N)=O)[C@@H](OC)/C=C\C=C(/C)C(=O)NC(=CC2=O)C3=O)CC1`, the selectivity ratio came to 2.49 in data set [1], 2.42 in data set [2], 2.69 in data set [4] and 2.87 in data set [5]. For the same compound, the negative-log Kd (pKd) in data set [3] is 5.53. For the same compound, the negative-log IC50 (pIC50) in the data set with A549 was 5.36; with PC-3 it was 5.39; in the data set on U-87 MG it was 5.31; with SK-OV-3, 5.33; in [6], 4.93; with SK-BR-3, 5.33. Further, in data set [7], the “Ratio IC50” value came out at 2.48.
In the case of `CO[C@H]1/C=C\C=C(/C)C(=O)NC2=CC(=O)C(NC3CCN(Cc4ccccc4)CC3)=C(C[C@@H](C)C[C@H](OC)[C@H](O)[C@@H](C)/C=C(\C)[C@@H]1OC(N)=O)C2=O`, the selectivity ratio in data set [1] worked out at 2.76; in data set [2] it was 4.14; in data set [4], 2.9; in [5], 4.83. The negative-log IC50 (pIC50) was 5.77 with A549; 6.00 in the data set with PC-3; 5.96 in the data set on U-87 MG; 5.73 in the data set with SK-OV-3; 5.31 in data set [6]; 5.75 in the data set on SK-BR-3. Also, the “Ratio IC50” value in data set [7] turned out to be 2.64.
Consider `CO[C@@H](/C=C/C=C(/C)C(N)=O)[C@@H](OC(N)=O)/C(C)=C/[C@H](C)[C@@H](O)[C@H](C[C@H](C)CC1=C(NCCCCO)C(=O)C=C(NCCCCO)C1=O)OC`, for which the selectivity ratio in data set [1] turned out to be 1.51; in data set [2], 1.56; in [4] it was 1.55; in data set [5] it was 1.4. The pIC50 is 5.39 in the data set with A549; 5.34 in the data set on PC-3; 5.39 in the data set on U-87 MG; 5.37 in the data set with SK-OV-3; 5.20 in data set [6]; 5.38 with SK-BR-3. Further, the “Ratio IC50” value in [7] is listed as 1.49.
Consider `CO[C@@H](C=CC=C(C)C(N)=O)[C@@H](OC(N)=O)/C(C)=C/[C@H](C)[C@@H](O)[C@H](C[C@H](C)CC1=C(NCCO)C(=O)C=C(NCCO)C1=O)OC`, for which the selectivity ratio in data set [1] came to 2.33; in data set [2] it was 3.42; in [4] it was 2.03; in data set [5], 2.72. Also, the negative logarithm of the Kd (pKd) in data set [3] is 3.87. Moreover, the negative-log IC50 (pIC50) in the data set on A549 was 5.62; in the data set with PC-3 it was 5.67; in the data set with U-87 MG, 5.69; in the data set on SK-OV-3, 5.58; in data set [6], 5.32; with SK-BR-3, 5.68. In addition, the “Ratio IC50” value in [7] was 1.82.
Take `CO[C@@H](C=CC=C(C)C(N)=O)[C@@H](OC(N)=O)/C(C)=C/[C@H](C)[C@@H](O)[C@H](C[C@H](C)CC1=C(NCCOCCO)C(=O)C=C(NCCOCCO)C1=O)OC`: the selectivity ratio in data set [1] came to 2.62; in data set [2], 2.49; in data set [4] it was 2.73; in data set [5] it was 2.41. Moreover, the negative logarithm of the IC50 (pIC50) in the data set on A549 was 4.94; with PC-3, 4.89; in the data set on U-87 MG, 4.90; in the data set with SK-OV-3, 4.91; in data set [6] it was 4.50; in the data set with SK-BR-3, 4.92. Further, the “Ratio IC50” value in data set [7] came to 2.53.
In the case of `CO[C@H]1/C=C\C=C(/C)C(=O)NC2=CC(=O)C(NCC3COCCOCCOCCOCCOCCO3)=C(C[C@@H](C)C[C@H](OC)[C@H](O)[C@@H](C)/C=C(\C)[C@@H]1OC(N)=O)C2=O` (stereo partly drawn), the selectivity ratio in data set [1] was 5.73; in [2] it was 4.85; in data set [4], 3.73; in [5], 6.78. Besides, the pKd in data set [3] is 5.92. Besides, the pIC50 in the data set with A549 is 5.96; in the data set with PC-3, 6.22; in the data set with U-87 MG, 6.08; with SK-OV-3, 6.18; in data set [6], 5.39; with SK-BR-3, 6.15. Further, the “Ratio IC50” value in data set [7] was found to be 6.17.
As to `CO[C@H]1/C=C\C=C(/C)C(=O)NC2=CC(=O)C(NCC3CCC(C(=O)O)CC3)=C(C[C@@H](C)C[C@H](OC)[C@H](O)[C@@H](C)/C=C(\C)[C@@H]1OC(N)=O)C2=O` (stereo partly drawn), the selectivity ratio in data set [1] was 2.82; in [2] it was 2.52; in data set [4] it was 2.53; in data set [5] it was 3.12. Moreover, in data set [3], the negative logarithm of the Kd (pKd) is 6.03. Also, the pIC50 was 5.54 with A549; 5.63 with PC-3; 5.55 with U-87 MG; 5.55 in the data set with SK-OV-3; 5.13 in data set [6]; 5.58 in the data set on SK-BR-3. Besides, the “Ratio IC50” value in data set [7] amounted to 2.64.
`CO[C@@H](/C=C/C=C(/C)C(N)=O)[C@@H](OC(N)=O)/C(C)=C/[C@H](C)[C@@H](O)[C@H](C[C@H](C)CC1=C(NCCCN2CCCC2)C(=O)C=C(NCCCN2CCCC2)C1=O)OC`: the selectivity ratio was determined as 2.49 in data set [1], 2.43 in data set [2], 2.54 in data set [4] and 2.27 in data set [5]. In addition, the pIC50 is 5.09 in the data set on A549; 5.04 with PC-3; 5.07 with U-87 MG; 5.03 in the data set with SK-OV-3; 4.69 in data set [6]; 5.08 with SK-BR-3. Moreover, the “Ratio IC50” value in data set [7] is on record as 2.19.
Regarding `CO[C@@H](C=CC=C(C)C(N)=O)[C@@H](OC(N)=O)/C(C)=C/[C@H](C)[C@@H](O)[C@H](C[C@H](C)CC1=C(NCCCCCCO)C(=O)C=C(NCCCCCCO)C1=O)OC`, the selectivity ratio in data set [2] stood at 1.52; in data set [4] it was 1.57; in [5], 1.48. Also, in data set [3], the pKd is 3.74. Also, the pIC50 in the data set with A549 is 4.96; in the data set with PC-3 it was 4.93; with U-87 MG it was 4.94; with SK-OV-3, 4.93. Further, the “Ratio IC50” value in data set [7] is given as 1.47.
On to `CO[C@H]1/C=C\C=C(/C)C(=O)NC2=CC(=O)C(NC3CCN(S(C)(=O)=O)CC3)=C(C[C@@H](C)C[C@H](OC)[C@H](O)[C@@H](C)/C=C(\C)[C@@H]1OC(N)=O)C2=O`, for which the selectivity ratio in data set [1] was determined as 2.93; in [2] it was 2.76; in data set [4], 2.19; in data set [5], 3.19. The negative logarithm of the IC50 (pIC50) is 5.53 in the data set with A549; 5.70 in the data set on PC-3; 5.63 in the data set on U-87 MG; 5.60 in the data set on SK-OV-3; 5.19 in [6]; 5.66 in the data set on SK-BR-3. Also, in [7], the “Ratio IC50” value turned out to be 2.58.
As for `Nc1ccn([C@@H]2O[C@H](CO)[C@@H](O)[C@@H]2O)c(=O)n1` [CYTARABINE], the selectivity ratio in [1] was found to be 6.83; in data set [2] it was 6.99; in data set [4], 7.16; in data set [5] it was 7.33. In addition, the negative-log IC50 (pIC50) with A549 is 6.08; in the data set on PC-3, 6.09; with U-87 MG, 6.07; in the data set on SK-OV-3 it was 6.00; in data set [6], 5.23; with SK-BR-3, 6.06. The “Ratio IC50” value in [7] came to 6.
